Measured values as given in patent US11142515B2, “Pyrazolyl-ureas as kinase inhibitors” (RESPIVERT LIMITED, priority 2014, dated 2021).

Experiments:
PBMCs (mitosis) = test: Cell mitosis assay in PHA-treated PBMCs; assay type: cell-based, human
Procedure: Peripheral blood mononucleocytes (PBMCs) from healthy subjects were separated from whole blood (Quintiles, London, UK) using a density gradient (Histopaquee-1077, Sigma-Aldrich, Poole, UK). The PBMCs (3 million cells per sample) were subsequently treated with 2% PHA (Sigma-Aldrich, Poole, UK) for 48 h, followed by a 20 h exposure to varying concentrations of test compounds. At 2 h before collection, PBMCs were treated with demecolcine (0.1 μg/mL; Life Technologies, Paisley, UK,) to arrest cells in metaphase.

[1] = system: sputum macrophages from COPD patients; test: Cytokine production in LPS-treated sputum macrophages from COPD patients; assay type: cell-based, human
Procedure: Patients with COPD inhaled a nebulised solution of 3% (w/v) hypertonic saline using an ultrasonic nebuliser (Devilbiss, Carthage, Mo.) with tidal breathing for 5 min. This procedure was repeated a maximum of three times until enough sputum was obtained. The sputum samples were homogenized and mixed vigorously using a vortex mixer in 0.02% v/v dithiothreitol (DTT) solution. The samples were re-suspended in PBS (40 mL) followed by centrifugation at 1500 rpm at 4° C. for 10 min to obtain sputum cell pellets. The pellets were washed with PBS (40 mL). The sputum cells were then re-suspended in 4 mL macrophage serum-free medium (macrophage-SFM, Life technologies, containing 20 U/mL penicillin, 0.02 mg/mL streptomycin and 5 μg/mL amphotericin B) and seeded on high bound 96-well plate, followed by incubation for 1 h at 37° C. and at 5% CO2 to allow the macrophages to attach to the bottom of the plate. The cells on the plate were washed with fresh macrophage-SFM (200 μL/well) to remove neutrophils and other contaminated cells. The adherent cells (mainly sputum macrophages) on the plate were used for further analysis. Sputum inductions were conducted in Quintiles Drug Research Unit at Guys Hospital and ethics approval and written informed consent was obtained by Quintiles.
Where appropriate, 1 μL of a solution containing either the test compound or reference article at the stated concentrations (either 0.1 μg/mL, 0.01 μg/mL, or 0.001 μg/mL) or alternatively 1 μL of DMSO as the vehicle control was added to each well (200 μL in media) and the cells were incubated for 2 h. The cells were stimulated with LPS solution (50 μL, final concentration: 1 μg/mL) and incubated for 18 h at 37° C. and 5% CO2. The supernatant was then collected and kept at −80° C. Suitable luminex kits were used to measure the selected analytes. After thawing the supernatant, the magnetic antibody beads were multiplexed and incubated in a 96-well plate with standard, background solution or the appropriate volume of sample overnight with shaking at 4° C. After washing twice with 200 μL of wash buffer provided by the kit per well using a magnetic plate washer, the beads were incubated for 1 h at RT with the biotin conjugated antibody solution provided by the kit with shaking. Streptavidin solution was added for 30 min with shaking at RT. After washing with 200 μL wash buffer per well, the beads were resuspended in sheath fluid (150 μL) and analyzed immediately. The level of each analyte in the supernatant was calculated using Xcel Fit software with a 4 or 5-parameter equation using each standard curve. The inhibitions of each cytokine production were calculated at each concentration by comparison with vehicle control.

[2] = system: neutrophil accumulation in BALF; test: LPS-induced neutrophil accumulation in mice; assay type: in vivo, Balb/c mice; conditions: mice; for Neutrophil numbers in BALF / Neutrophil numbers in BALF, % inhibition: 0.2 mg/mL, LPS
Procedure: Non-fasted Balb/c mice were […] by the intra tracheal route with either vehicle, or the test substance at the indicated times (within the range 2-8 h) before stimulation of the inflammatory response by application of an LPS challenge. At T=0, mice were placed into an exposure chamber and exposed to LPS (7.0 mL, 0.5 mg/mL solution in PBS for 30 min). After a further 8 h the animals were anesthetized, their tracheas cannulated and BALF extracted by infusing and then withdrawing from their lungs 1.0 mL of PBS via the tracheal catheter. Total and differential white cell counts in the BALF samples were measured using a Neubaur haemocytometer. Cytospin smears of the BALF samples were prepared by centrifugation at 200 rpm for 5 min at RT and stained using a DiffQuik stain system (Dade Behring). Cells were counted using oil immersion microscopy. Data for neutrophil numbers in BAL are shown as mean±S.E.M. (standard error of the mean). The percentage inhibition of neutrophil accumulation was calculated for each treatment relative to vehicle treatment.

[3] = system: alveolar macrophages and neutrophils in BALF; test: Cigarette smoke model: macrophages and neutrophils in BALF; assay type: in vivo, A/J mice; conditions: mice; for Cell numbers in BALF, Macrophage / Cell numbers in BALF, Macrophage, % inhibition / Cell numbers in BALF, Neutrophil / Cell numbers in BALF, Neutrophil, % inhibition: tobacco smoke
Procedure: A/J mice (males, 5 weeks old) were exposed to cigarette smoke (4% cigarette smoke, diluted with air) for 30 min/day for 11 days using a Tobacco Smoke Inhalation Experiment System for small animals (Model SIS-CS; Sibata Scientific Technology, Tokyo, Japan). […] At 12 h after the last […], each of the animals was anesthetized, the trachea cannulated and bronchoalveolar lavage fluid (BALF) was collected. The numbers of alveolar macrophages and neutrophils were determined by FACS analysis (EPICS® ALTRA II, Beckman Coulter, Inc., Fullerton, Calif., USA) using anti-mouse MOMA2 antibody (macrophage) or anti-mouse 7/4 antibody (neutrophil). BALF was centrifuged and the supernatant was collected. The level of keratinocyte chemoattractant (KC; CXCL1) in BALF was quantitated using a Quantikine® mouse KC ELISA kit (R&D systems, Inc., Minneapolis, Minn., USA).

In the case of `Cc1ccc(-n2nc(C(C)(C)C)cc2NC(=O)Nc2ccc(OCc3ccnc(Nc4cnccn4)c3)c3ccccc23)cc1` [Example 1, 1-(3-(tert-Butyl)-1-(p-tolyl)-1H-pyrazol-5-yl)-3-(4-((2-(pyrazin-2-ylamino)pyridin-4-yl)methoxy)naphthalen-1-yl)urea], the “impact on cell division (mitosis) compared with Reference Compound” value (PBMCs (mitosis)) is reported as “markedly less activity”, the inhibition at 5 µg/mL (PBMCs (mitosis); Homo sapiens, PBMC, 5 μg/mL, PBMC, Table 5A, read-out: Mitosis Assay % Inhibition at 5 μg/mL in PBMC Cells) is reported as 29.9% and the “inhibition of pro-inflammatory cytokine production in sputum macrophage compared with fluticasone propionate” value [1] is reported as “higher efficacy”. The IC50 ([1]; Homo sapiens, Macrophage, IL-6, sputum macrophages from COPD patients) was 28 nM, the inhibition at 0.1 µg/mL ([1]; Homo sapiens, Macrophage, read-out: E-max (maximum inhibition), IL-6 production in LPS-treated sputum macrophages) was 60% and the “Neutrophil numbers in BALF” value ([2]; pre-dose time 2 hr) was 492000 mL⁻¹. The “Neutrophil numbers in BALF, % inhibition” value ([2]; pre-dose time 2 hr) was 67.8%, the “Neutrophil numbers in BALF” value ([2]; pre-dose time 8 hr) was 759000 mL⁻¹ and the “Neutrophil numbers in BALF, % inhibition” value ([2]; pre-dose time 8 hr) was 50.3%. For the same molecule, the “LPS-induced neutrophil accumulation (in words)” value [2] was “inhibition”, the “duration of action (time course experiment)” value [2] was “long duration of action” and the “Cell numbers in BALF, Macrophage” value ([3]; 0.07 μg/mouse) was 172700 mL⁻¹. The “Cell numbers in BALF, Macrophage, % inhibition” value ([3]; 0.07 μg/mouse) was 10.2%, the “Cell numbers in BALF, Neutrophil” value ([3]; 0.07 μg/mouse) was 94200 mL⁻¹ and the “Cell numbers in BALF, Neutrophil, % inhibition” value ([3]; 0.07 μg/mouse) was 13.7%. For the same molecule, the “Cell numbers in BALF, Macrophage” value ([3]; 0.7 μg/mouse) was 149200 mL⁻¹, the “Cell numbers in BALF, Macrophage, % inhibition” value ([3]; 0.7 μg/mouse) was 26.5% and the “Cell numbers in BALF, Neutrophil” value ([3]; 0.7 μg/mouse) was 76600 mL⁻¹. For the same molecule, the “Cell numbers in BALF, Neutrophil, % inhibition” value ([3]; 0.7 μg/mouse) was 33.7%, the “Cell numbers in BALF, Macrophage” value ([3]; 7 μg/mouse) was 113400 mL⁻¹ and the “Cell numbers in BALF, Macrophage, % inhibition” value ([3]; 7 μg/mouse) was 51.1%. For the same molecule, the “Cell numbers in BALF, Neutrophil” value ([3]; 7 μg/mouse) was 60400 mL⁻¹, the “Cell numbers in BALF, Neutrophil, % inhibition” value ([3]; 7 μg/mouse) was 52.0% and the “macrophage and neutrophil accumulation in BALF induced by cigarette smoke (in words)” value [3] was “dose-dependent inhibition”.
